Earlier results on 29 compounds are cited in publication PMC5742115, “Pharmacophore Modeling and in Silico/in Vitro Screening for Human Cytochrome P450 11B1 and Cytochrome P450 11B2 Inhibitors” (Frontiers in Chemistry, 2017).

The IC50 is the concentration at which inhibition is half-maximal.

Where two headings read alike, the source gives them in different places.

The subject of series [1] is CYP11B1. The settings on record: reported activity, supplementary Table 1, read-out: CYP11B1 IC50, cited from earlier work.
Series [2] deals with CYP11B2. The note with it: reported activity, supplementary Table 1, read-out: CYP11B2 IC50, cited from earlier work.

With `c1coc(-c2cc(Cn3ccnc3)cnc2-c2ccco2)c1` [CHEMBL2011437], the IC50 is 29 nM in series [1] (ref Hille et al., 2011a) and 830 nM in series [2] (ref Hille et al., 2011a).

With `CC(c1cc2c3c(c1)CCN3C(=O)CC2)n1ccnc1` (stereo not shown) [CHEMBL2163636], the IC50 is 17 nM in series [1] (ref Yin et al., 2012) and 15 nM in series [2] (ref Yin et al., 2012).

Consider `CCC(c1cc2c3c(c1)CCN3C(=O)CC2)n1ccnc1` (stereo not shown) [CHEMBL2163637], for which the IC50 in series [1] (ref Yin et al., 2012) is 6.5 nM; in series [2] (ref Yin et al., 2012) it was 5.8 nM.

As to `CC(C)C(c1cc2c3c(c1)CCN3C(=O)CC2)n1ccnc1` (stereo not shown) [CHEMBL2163638], the 50% inhibitory concentration (IC50) in series [1] (ref Yin et al., 2012) is 3.8 nM; in series [2] (ref Yin et al., 2012), 1.4 nM.

As for `O=C1CCc2cc(C(C3CC3)n3ccnc3)cc3c2N1CC3` (stereo not shown) [CHEMBL2163639], the IC50 in series [1] (ref Yin et al., 2012) is 2.2 nM; in series [2] (ref Yin et al., 2012) it was 24 nM.

For `O=C1CCc2cc(C(C3CCC3)n3ccnc3)cc3c2N1CC3` (stereo not shown) [CHEMBL2163640], the IC50 is 3.4 nM in series [1] (ref Yin et al., 2012) and 4.2 nM in series [2] (ref Yin et al., 2012).

As for `C=C(c1cc2c3c(c1)CCN3C(=O)CC2)n1ccnc1` [CHEMBL2163641], the 50% inhibitory concentration (IC50) in series [1] (ref Yin et al., 2012) was 19 nM; in series [2] (ref Yin et al., 2012) it was 100 nM.

For the compound `O=C1CCc2cc(C(c3ccccc3F)n3ccnc3)cc3c2N1CC3` (stereo not shown) [CHEMBL2163642], the IC50 in series [1] (ref Yin et al., 2012) is 40 nM; in series [2] (ref Yin et al., 2012), 19 nM.

In the case of `O=C1CCc2cc(C(c3cccc(F)c3)n3ccnc3)cc3c2N1CC3` (stereo not shown) [CHEMBL2163643], the IC50 was 29 nM in series [1] (ref Yin et al., 2012) and 18 nM in series [2] (ref Yin et al., 2012).

As to `O=C1CCc2cc(C(c3ccc(F)cc3)n3ccnc3)cc3c2N1CC3` (stereo not shown) [CHEMBL2163644], the IC50 is 27 nM in series [1] (ref Yin et al., 2012) and 29 nM in series [2] (ref Yin et al., 2012).

On to `COc1cccc(C(c2cc3c4c(c2)CCN4C(=O)CC3)n2ccnc2)c1` (stereo not shown) [CHEMBL2163645], for which the IC50 is 110 nM in series [1] (ref Yin et al., 2012) and 88 nM in series [2] (ref Yin et al., 2012).

On to `O=C1CCc2cc(C(c3ccccc3)n3ccnc3)cc3c2N1CC3` (stereo not shown) [CHEMBL2163649], for which the IC50 in series [1] (ref Yin et al., 2012) is 50 nM; in series [2] (ref Yin et al., 2012), 33 nM.

For `O=C1CCc2cc(C(c3ccco3)n3ccnc3)cc3c2N1CC3` (stereo not shown) [CHEMBL2163650], the concentration for half-maximal inhibition (IC50) in series [1] (ref Yin et al., 2012) is 20 nM; in series [2] (ref Yin et al., 2012) it was 47 nM.

For `O=C1CCc2cc(C(c3cccs3)n3ccnc3)cc3c2N1CC3` (stereo not shown) [CHEMBL2163651], the concentration for half-maximal inhibition (IC50) in series [1] (ref Yin et al., 2012) was 13 nM; in series [2] (ref Yin et al., 2012), 18 nM.

Regarding `COc1cc2c(cc1-c1cccnc1)CCC(=O)N2C` [CHEMBL2165315], the IC50 in series [1] (ref Hu et al., 2012) was 1100 nM; in series [2] (ref Hu et al., 2012) it was 19 nM.

For the compound `CCOc1cc2c(cc1-c1cccnc1)CCC(=O)N2C` [CHEMBL2165317], the IC50 in series [1] (ref Hu et al., 2012) is 790 nM; in series [2] (ref Hu et al., 2012), 19 nM.

For `O=C1CCc2cc(-c3cccnc3)c(OCc3ccccc3)cc2N1` [CHEMBL2165320], the half-inhibitory concentration (IC50) is 44 nM in series [1] (ref Hu et al., 2012) and 22 nM in series [2] (ref Hu et al., 2012).

On to `O=C1CCc2cc(-c3cccnc3)cc(Br)c2N1` [CHEMBL2165322], for which the IC50 in series [1] (ref Hu et al., 2012) was 1420 nM; in series [2] (ref Hu et al., 2012) it was 12 nM.

As to `C=C(c1ccncc1)c1cc2c3c(c1)CCN3C(=O)CC2` [CHEMBL2312949], the IC50 in series [1] (ref Yin et al., 2013) was 1230 nM; in series [2] (ref Yin et al., 2013), 96 nM.

`CC(c1ccncc1)c1cc2c3c(c1)CCN3C(=O)CC2` (stereo not shown) [CHEMBL2312950]: the 50% inhibitory concentration (IC50) in series [1] (ref Yin et al., 2013) is 140 nM; in series [2] (ref Yin et al., 2013), 74 nM.

With `O=C1CCc2cc(C(O)(c3ccccc3)c3ccncc3)cc3c2N1CC3` (stereo not shown) [CHEMBL2312953], the IC50 in series [1] (ref Yin et al., 2013) was 745 nM; in series [2] (ref Yin et al., 2013) it was 85 nM.

As to `COc1ccc(C(c2ccncc2)c2cc3c4c(c2)CCN4C(=O)CC3)cc1` (stereo not shown) [CHEMBL2312957], the IC50 in series [1] (ref Yin et al., 2013) is 1690 nM; in series [2] (ref Yin et al., 2013) it was 46 nM.

`O=C1CCc2cc(C(c3ccncc3)c3cccc(F)c3)cc3c2N1CC3` (stereo not shown) [CHEMBL2312958]: the half-inhibitory concentration (IC50) in series [1] (ref Yin et al., 2013) was 532 nM; in series [2] (ref Yin et al., 2013) it was 88 nM.

For the compound `O=C1CCc2cc(C(c3ccncc3)c3ccc(F)cc3)cc3c2N1CC3` (stereo not shown) [CHEMBL2312959], the half-inhibitory concentration (IC50) in series [1] (ref Yin et al., 2013) is 88 nM; in series [2] (ref Yin et al., 2013) it was 56 nM.

As to `O=C1CCc2cc(C(c3ccncc3)c3cccc(Cl)c3)cc3c2N1CC3` (stereo not shown) [CHEMBL2312960], the 50% inhibitory concentration (IC50) in series [1] (ref Yin et al., 2013) is 646 nM; in series [2] (ref Yin et al., 2013), 51 nM.

For the compound `O=C1CCc2cc(C(c3ccncc3)c3ccc(Cl)cc3)cc3c2N1CC3` (stereo not shown) [CHEMBL2312961], the IC50 in series [1] (ref Yin et al., 2013) is 92 nM; in series [2] (ref Yin et al., 2013) it was 32 nM.

In the case of `Cc1cccc(C(c2ccncc2)c2cc3c4c(c2)CCN4C(=O)CC3)c1` (stereo not shown) [CHEMBL2312962], the half-maximal inhibitory concentration (IC50) in series [1] (ref Yin et al., 2013) was 1340 nM; in series [2] (ref Yin et al., 2013), 41 nM.

Regarding `O=C1CCc2cc(Cc3cccnc3)cc3c2N1CC3` [CHEMBL2312965], the IC50 in series [1] (ref Yin et al., 2013) is 16 nM; in series [2] (ref Yin et al., 2013) it was 74 nM.

In the case of `C=C(c1cccnc1)c1cc2c3c(c1)CCN3C(=O)CC2` [CHEMBL2312966], the IC50 is 41 nM in series [1] (ref Yin et al., 2013) and 468 nM in series [2] (ref Yin et al., 2013).
